SMILES strings stand for the structures. A value given as a limit tells only on which side of the number the result lay.

One experiment deals with T1, human Cav3.2 channels (Homo sapiens, UniProt O95180).
T1 construct: expressed in transfected cells; host or cells: HEK293 cells (ATCC No. CRL-1573), plasmid pcDNA3.1(+)
T1 sequence (O95180 whole entry): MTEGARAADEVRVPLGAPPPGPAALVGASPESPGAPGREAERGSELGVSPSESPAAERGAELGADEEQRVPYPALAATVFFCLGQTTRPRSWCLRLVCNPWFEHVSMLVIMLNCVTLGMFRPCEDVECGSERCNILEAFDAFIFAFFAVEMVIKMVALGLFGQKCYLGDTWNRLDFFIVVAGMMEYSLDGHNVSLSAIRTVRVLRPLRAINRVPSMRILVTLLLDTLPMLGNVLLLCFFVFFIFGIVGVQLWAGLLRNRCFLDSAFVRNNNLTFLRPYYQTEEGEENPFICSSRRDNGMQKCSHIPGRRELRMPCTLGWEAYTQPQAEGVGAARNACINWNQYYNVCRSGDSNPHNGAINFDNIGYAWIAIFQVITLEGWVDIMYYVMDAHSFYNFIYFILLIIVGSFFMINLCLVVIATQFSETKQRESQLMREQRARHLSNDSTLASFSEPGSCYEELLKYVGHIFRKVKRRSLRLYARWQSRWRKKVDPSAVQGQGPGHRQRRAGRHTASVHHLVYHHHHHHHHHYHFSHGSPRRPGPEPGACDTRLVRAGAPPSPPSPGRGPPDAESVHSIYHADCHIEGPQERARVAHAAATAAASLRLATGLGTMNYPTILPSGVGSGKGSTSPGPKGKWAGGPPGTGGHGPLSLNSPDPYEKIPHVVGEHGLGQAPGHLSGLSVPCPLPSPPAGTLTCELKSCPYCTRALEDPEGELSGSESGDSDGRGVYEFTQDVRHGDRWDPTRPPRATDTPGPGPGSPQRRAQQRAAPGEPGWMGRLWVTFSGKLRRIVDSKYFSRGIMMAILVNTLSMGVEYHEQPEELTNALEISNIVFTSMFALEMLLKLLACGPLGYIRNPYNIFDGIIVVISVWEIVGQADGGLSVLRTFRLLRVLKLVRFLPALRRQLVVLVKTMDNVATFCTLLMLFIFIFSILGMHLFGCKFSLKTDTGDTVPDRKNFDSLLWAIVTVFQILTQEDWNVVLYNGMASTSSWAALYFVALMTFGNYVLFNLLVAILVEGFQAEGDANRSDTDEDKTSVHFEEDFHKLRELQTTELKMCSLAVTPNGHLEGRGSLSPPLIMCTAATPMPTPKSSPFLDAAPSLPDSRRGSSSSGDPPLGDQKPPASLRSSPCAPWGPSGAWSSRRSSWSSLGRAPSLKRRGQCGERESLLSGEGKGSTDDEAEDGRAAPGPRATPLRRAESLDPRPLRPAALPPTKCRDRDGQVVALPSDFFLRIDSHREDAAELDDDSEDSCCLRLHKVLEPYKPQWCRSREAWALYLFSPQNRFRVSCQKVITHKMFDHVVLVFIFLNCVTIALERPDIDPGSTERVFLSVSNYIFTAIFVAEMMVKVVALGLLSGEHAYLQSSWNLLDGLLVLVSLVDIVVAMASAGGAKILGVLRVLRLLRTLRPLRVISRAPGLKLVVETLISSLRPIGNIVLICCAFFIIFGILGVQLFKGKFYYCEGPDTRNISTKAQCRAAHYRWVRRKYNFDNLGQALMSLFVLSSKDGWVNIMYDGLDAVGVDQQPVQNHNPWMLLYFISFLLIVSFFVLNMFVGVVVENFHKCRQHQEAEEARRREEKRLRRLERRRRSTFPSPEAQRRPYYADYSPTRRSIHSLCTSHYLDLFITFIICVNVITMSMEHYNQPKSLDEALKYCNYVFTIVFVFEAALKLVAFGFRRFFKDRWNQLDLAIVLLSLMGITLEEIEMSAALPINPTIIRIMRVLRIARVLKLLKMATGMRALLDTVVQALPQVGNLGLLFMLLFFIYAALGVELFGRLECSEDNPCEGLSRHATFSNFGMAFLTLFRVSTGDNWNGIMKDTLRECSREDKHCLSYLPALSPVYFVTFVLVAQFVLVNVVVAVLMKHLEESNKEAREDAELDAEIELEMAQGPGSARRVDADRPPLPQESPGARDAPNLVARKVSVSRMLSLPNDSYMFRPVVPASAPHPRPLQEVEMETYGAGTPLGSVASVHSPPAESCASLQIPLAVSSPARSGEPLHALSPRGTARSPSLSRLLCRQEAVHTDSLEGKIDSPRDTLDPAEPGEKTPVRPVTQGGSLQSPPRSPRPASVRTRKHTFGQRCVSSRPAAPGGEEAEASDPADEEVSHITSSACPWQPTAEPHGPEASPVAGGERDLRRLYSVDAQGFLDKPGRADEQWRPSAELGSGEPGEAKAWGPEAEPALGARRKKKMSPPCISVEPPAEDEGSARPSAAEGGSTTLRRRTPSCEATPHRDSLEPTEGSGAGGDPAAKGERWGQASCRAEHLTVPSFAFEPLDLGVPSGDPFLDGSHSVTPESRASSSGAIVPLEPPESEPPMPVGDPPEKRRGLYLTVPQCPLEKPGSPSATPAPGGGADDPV
Put plainly: Intracellular calcium concentration measurement (Fluo-4 AM) in stable cells expressing human Cav3.2 channels, buffer A / buffer B. The experiment is classed as cell-based. The following applies: Table 1; buffer A, equilibrium potential of potassium −92 mV; read-out: Inhibitory action of buffer A (inactivated state). The source says:
Construction of Stable Cells Expressing Human Cav3.2 Channels
(1) A sequence produced by incorporating HindIII site and kozak sequence (GCCACC) into the 5′-terminal side of human Cav3.2 channel ORF (Open Reading Frame) gene and incorporating Kpnl site into the 3′-terminal side was incorporated into pcDNA3.1(+) (Thermo-Fisher Scientific, Inc., #V790-20), and the plasmid was transfected into HEK293 cells (ATCC No. CRL-1573) according to the protocol of FuGENE (registered trademark) HD Transfection Reagent (PROMEGA #E2311).
(2) Method for Measuring Intracellular Calcium Concentration
In the present measurement system, buffer A and buffer B having different potassium ion concentrations were used in order to evaluate the state-dependent Cav3.2 inhibitory action of a test compound.
Stable cell line expressing human Cav3.2 channels, which had been produced in (1), was seeded in a 96-well plate using DMEM medium including 10% FBS, and the cells were cultured for 48 hours under the conditions of 37° C. and 5% CO2. Subsequently, the medium was removed, and various wells that had been washed with a base buffer were treated with 80 μL of a fluorescent dye solution containing a mixed liquid of 22 μg of calcium fluorescence indicator Fluo-4 AM (Dojindo Laboratories Co., Ltd., #F311), 20 μL of DMSO, […] of 10% Pluronic F-127 (Thermo-Fisher Scientific, Inc., #P6866), and 4 mL of a base buffer. The cells were left to stand for 45 minutes at room temperature in the dark, and then the cells were washed with buffer A or buffer B. Solutions having various test compound concentrations and respectively containing buffer A or buffer B were added to the respective wells, the respective solutions containing DMSO at the same final concentration as that of the test compound as negative control, or containing the test compound dissolved in 100% DMSO at a final concentration of 0.1%. The cells were left to stand for another 15 minutes at room temperature in the dark, and the cells were analyzed using the following method using a microplate reader, EnVision (PerkinElmer, Inc.). First, the background fluorescence for each well was measured, subsequently an ionophore was added to the well, and the fluorescence of the baseline was measured. Subsequently, buffer A or buffer B containing added KCl at a concentration of 83.8 mM or 91.8 mM was added to each well, and an increase in fluorescence caused by a calcium influx generated by that stimulus was measured for 10 seconds. The percentage inhibition was calculated from the maximum fluorescence increment from the baseline, and the logarithmic value of the test compound concentration and the inhibitory activity were plotted to calculate the IC50 value. The analysis was carried out by measuring the fluorescence at 510 nm emitted when the cells were irradiated with exciting light at 485 nm.
Base buffer: 140 mM NaCl, 5 mM KCl, 1 mM MgCl2, 0.5 mM CaCl2, 10 mM Glucose, and 10 mM HEPES, pH 7.3
Buffer A: Equilibrium potential of potassium: −92 mV
`C[C@@H](NC(=O)C1CC1c1nc2ccccc2[nH]1)c1ncc(Br)s1` (single isomer, unassigned) [Example 11A]: the IC50 fell in the range of 1 to 10 µM.
Turning to `C[C@@H](NC(=O)C1CC1c1nc2ccccc2n1C)c1ccc(OCC(F)(F)F)s1` (single isomer, unassigned) [Example 4B], the IC50 was in the range of 1 to 10 µM.
With `C[C@H](NC(=O)C1CC1c1nc2ccccc2[nH]1)c1ccc(OCC(F)(F)F)s1` (single isomer, unassigned) [Example 2B], the IC50 fell in the range of 1 to 10 µM.
As for `C[C@H](NC(=O)C1CC1c1nc2ccccc2[nH]1)c1ccc(OCC(F)(F)F)s1` (single isomer, unassigned) [Example 2A], the IC50 lay in the range of 1 to 10 µM.
Turning to `C[C@@H](NC(=O)[C@@H]1CCN(c2nc3ccccc3s2)C1)c1ccc(OCC(F)(F)F)s1` [Example 13, (R)-1-(benzo[d]thiazol-2-yl)-N—((R)-1-(5-(2,2,2-trifluoroethoxy)thiophen-2-yl)ethyl)pyrrolidine-3-carboxamide], the IC50 was more than 10 µM.

The experiment is the same for the next values; noted with them: Table 1; buffer B, equilibrium potential of potassium −110 mV; read-out: Inhibitory action of buffer B (resting state or closed state).
With `C[C@@H](NC(=O)C1CC1c1nc2ccccc2[nH]1)c1ncc(Br)s1` (single isomer, unassigned) [Example 11A], the IC50 was more than 10 µM.
On the same count and under the same terms, the result for `C[C@@H](NC(=O)C1CC1c1nc2ccccc2n1C)c1ccc(OCC(F)(F)F)s1` (single isomer, unassigned) [Example 4B] reads more than 10 µM.
For `C[C@H](NC(=O)C1CC1c1nc2ccccc2[nH]1)c1ccc(OCC(F)(F)F)s1` (single isomer, unassigned) [Example 2B], the IC50 is more than 10 µM.
Still for that read-out and setting: then `C[C@H](NC(=O)C1CC1c1nc2ccccc2[nH]1)c1ccc(OCC(F)(F)F)s1` (single isomer, unassigned) [Example 2A], with more than 10 µM.

The same experiment, now with this note: Tables 2 to 6; buffer A, equilibrium potential of potassium −92 mV; read-out: Inhibitory action of buffer A (inactivated state).
Consider `C[C@@H](NC(=O)[C@H]1C[C@@H]1c1nc2ccccc2[nH]1)c1cc2ccc(F)cc2s1` [Example 119, (1S,2S)-2-(1H-benzo[d]imidazol-2-yl)-N—((R)-1-(6-fluorobenzo[b]thiophen-2-yl)ethyl)cyclopropane-1-carboxamide], for which the IC50 was not above 0.1 µM.
On to `O=C(N[C@@H](c1ccc(C(F)(F)F)s1)C1CC1)[C@H]1C[C@@H]1c1nc2ccccc2[nH]1` [Example 69, (1S,2S)-2-(1H-benzo[d]imidazol-2-yl)-N—((R)-cyclopropyl(5-(trifluoromethyl)thiophen-2-yl)methyl)cyclopropane-1-carboxamide], for which the IC50 lay in the range of 0.1 to 1 µM.
Consider `C[C@@H](NC(=O)C1CC1c1nc2ccccc2o1)c1ccc(OCC(F)(F)F)s1` (single isomer, unassigned) [Example 40A], for which the IC50 was more than 10 µM.
Turning to `CC(C)[C@@H](NC(=O)[C@H]1C[C@@H]1c1nc2ccccc2[nH]1)c1cc2ccc(F)cc2s1` [Example 120, (1S,2S)-2-(1H-benzo[d]imidazol-2-yl)-N—((R)-1-(6-fluorobenzo[b]thiophen-2-yl)-2-methylpropyl)cyclopropane-1-carboxamide], the IC50 was 0.1 to 1 µM.
The same measure, in the same setting: the result for `C[C@@H](NC(=O)[C@@H]1C[C@H]1c1nc2ccccc2[nH]1)c1ccc(C(=O)OC(C)(C)C)s1` [Example 25B, Trans-5-((1R)-1-(2-(1H-benzo[d]imidazol-2-yl)cyclopropane-1-carboxamido)ethyl)thiophene-2-carboxylic acid tert-butyl ester] reads 1 to 10 µM; that for `CCn1c(C2CC2C(=O)N[C@H](C)c2cnc(OCC(F)(F)F)s2)nc2ccccc21` (single isomer, unassigned) [Example 57B], 1 to 10 µM; that for `O=C(N[C@@H](c1ccc(C(F)(F)F)s1)C1CCCCC1)[C@H]1C[C@@H]1c1nc2ccccc2[nH]1` [Example 59, (1S,2S)-2-(1H-benzo[d]imidazol-2-yl)-N—((R)-cyclohexyl(5-(trifluoromethyl)thiophen-2-yl)methyl)cyclopropane-1-carboxamide], 0.1 to 1 µM.
On the same count and under the same terms, then `C[C@@H](NC(=O)[C@H]1C[C@@H]1c1nc2ccccc2[nH]1)c1ccc2ccn(C)c2c1` [Example 86, (1S,2S)-2-(1H-benzo[d]imidazol-2-yl)-N—((R)-1-(1-methyl-1H-indol-6-yl)ethyl)cyclopropane-1-carboxamide], with 1 to 10 µM; and `C[C@@H](NC(=O)C1CC1c1nc2cc(Cl)ccc2[nH]1)c1nc(C2CC2)no1` (single isomer, unassigned) [Example 77A], with 0.1 to 1 µM; and `C[C@@H](NC(=O)C1CC1c1nc2cc(Cl)ccc2[nH]1)c1ccc(OCC(F)(F)F)s1` (single isomer, unassigned) [Example 53B], with 0.1 to 1 µM.
Same read-out and setting: the result for `C[C@@H](NC(=O)C1CC1C(=O)Nc1cccc(C(F)(F)F)c1)c1cc2cc(F)ccc2o1` (single isomer, unassigned) [Example 130B] reads 0.1 to 1 µM; that for `C[C@@H](NC(=O)[C@H]1C[C@@H]1c1nc2ccccc2[nH]1)c1nc(C2CC2)no1` [Example 72, (1S,2S)-2-(1H-benzo[d]imidazol-2-yl)-N—((R)-1-(3-cyclopropyl-1,2,4-oxadiazol-5-yl)ethyl)cyclopropane-1-carboxamide], 1 to 10 µM; that for `C[C@@H](NC(=O)[C@H]1C[C@@H]1c1nc2cc(F)ccc2[nH]1)c1ccc(OCC(F)(F)F)s1` [Example 118, (1S,2S)-2-(5-fluoro-1H-benzo[d]imidazol-2-yl)-N—((R)-1-(5-(2,2,2-trifluoroethoxy)thiophen-2-yl)ethyl)cyclopropane-1-carboxamide], not above 0.1 µM.
As to `C[C@@H](NC(=O)[C@H]1C[C@@H]1c1nc2ccccc2[nH]1)c1ccc(C2CC2)o1` [Example 74, (1S,2S)-2-(1H-benzo[d]imidazol-2-yl)-N—((R)-1-(5-cyclopropylfuran-2-yl)ethyl)cyclopropane-1-carboxamide], the IC50 lay in the range of 0.1 to 1 µM.
Turning to `C[C@@H](NC(=O)[C@H]1C[C@@H]1c1nc2ccccc2[nH]1)c1ccc(C(=O)N2CCC(F)(F)CC2)s1` [Example 94, (1S,2S)-2-(1H-benzo[d]imidazol-2-yl)-N—((R)-1-(5-(4,4-difluoropiperidine-1-carbonyl)thiophen-2-yl)ethyl)cyclopropane-1-carboxamide], the IC50 was 0.1 to 1 µM.
The same measure, in the same setting: the result for `CC(C)[C@@H](NC(=O)C1CC1c1nc2ccccc2[nH]1)c1ccc(OCC(F)(F)F)s1` (single isomer, unassigned) [Example 44] reads not above 0.1 µM; that for `C[C@@H](NC(=O)[C@H]1C[C@@H]1c1nc(-c2ccccn2)c[nH]1)c1ccc(OCC(F)(F)F)s1` [Example 46, (1S,2S)-2-(4-(pyridin-2-yl)-1H-imidazol-2-yl)-N—((R)-1-(5-(2,2,2-trifluoroethoxy)thiophen-2-yl)ethyl)cyclopropane-1-carboxamide], 0.1 to 1 µM.
Same read-out and setting: the result for `CC(NC(=O)[C@H]1C[C@@H]1c1nc2ccccc2[nH]1)c1nc2ccc(F)cc2[nH]1` (single isomer, unassigned) [Example 127B] reads 1 to 10 µM.
Regarding `C[C@@H](NC(=O)[C@H]1C[C@@H]1c1nc2ccccc2[nH]1)c1ccc(C(=O)N2CC(F)(F)C2)s1` [Example 83, (1S,2S)-2-(1H-benzo[d]imidazol-2-yl)-N—((R)-1-(5-(3,3-difluoroazetidine-1-carbonyl)thiophen-2-yl)ethyl)cyclopropane-1-carboxamide], the IC50 was 0.1 to 1 µM.
`CC(NC(=O)[C@H]1C[C@@H]1c1nc2ccccc2[nH]1)c1cc2ncccc2o1` (stereo partly drawn) [Example 80, (1S,2S)-2-(1H-benzo[d]imidazol-2-yl)-N-(1-(furo[3,2-b]pyridin-2-yl)ethyl)cyclopropane-1-carboxamide]: the IC50 is 1 to 10 µM.
In the case of `O=C(NCc1cc2cc(F)ccc2o1)[C@H]1C[C@@H]1c1nc2ccccc2[nH]1` [Example 113, (1S,2S)-2-(1H-benzo[d]imidazol-2-yl)-N-((5-fluorobenzofuran-2-yl)methyl)cyclopropane-1-carboxamide], the IC50 is not above 0.1 µM.

These data come from US11420944B2, “Voltage-dependent t-type calcium channel blocker” (Nippon Chemiphar Co., Ltd., priority 2016, dated 2022).
